Consider six substances from PMC7554977, “Antimicrobial Peptides with Enhanced Salt Resistance and Antiendotoxin Properties” (International Journal of Molecular Sciences, 2020).

The subject of assay [1] is Gram-negative and Gram-positive bacteria. The settings on record: cited from earlier work. The text has this:
Problems such as salt sensitivity, cost of synthesis, bioavailability, and stability have limited the therapeutic applications of antimicrobial peptides. Among these problems, salt sensitivity is directly related to the microbicidal mechanism of antimicrobial peptides. […] Similar problems have also been found with other antimicrobial peptides. || Recently, solution structures of S1 (Ac-KKWRKWLAKK-NH2) and S1-Nal-Nal (Ac-KKWRKWLAKKNal-Nal-NH2) in complex with LPS micelles have been reported. Both S1 and S1-Nal-Nal bound to LPS through the hydrophilic surface of their helices to the negatively charged region of LPS. S1-Nal-Nal further inserted deeper into the hydrophobic core of LPS micelles and created better hydrophobic interactions of its C-terminal β-naphthylalanine end-tags with the lipid A motif of LPS. The LPS-induced inflammation might then be prohibited. Moreover, a strategy was developed to increase salt resistance and L ... || To investigate the amphipathic helix–AGP–hydrophobic helix on the antimicrobial and neutralization activities of LPS, two peptides KR12 and RW6 were used for the N-terminal and C-terminal helices. […] Sequences of the designed peptides are listed in Table 1 and their helical wheel analyses ar ...

Assay [2] deals with Acinetobacter sp. (BCRC number 14B0100). The class given is cell-based. The settings on record: MH and LYM media. The text has this:
(§1) Escherichia coli strain (ATCC 25922), Staphylococcus aureus sp. strain (ATCC 25923), Pseudomonas aeruginosa Migula strain (ATCC 27853) and Acinetobacter sp. (BCRC number 14B0100) were used to test the antibacterial activity of the peptides. All bacteria were purchased from Food Industry Research and Development Institute (Hsinchu, Taiwan), and Acinetobacter sp. is multiresistant to Ampicillin, Cefazolin, Cefoxitin, Ceftazidime, Ceftriaxone, Ciprofloxacin, Penicillin, Tetracycline and Imipenem. Bacteria were cultured in sterilized MH (Müller−Hinton) broth at 200 rpm and 37 °C for 8 h. After 8 h of culture, the concentrations of the inoculums were determined by measuring absorbance of optical density at 600 nm (OD 600 = 1, equal to approximately 10^8 CFU/mL) with Ultrospec 2100 pro UV−Visible spectrophotometer (Biochrom Ltd., Cambridge, UK)).
(§2) The antibacterial activities were determined by the standard broth microdilution method of the National Committee for Clinical Laboratory Standards with the MH and LYM broth. The LYM broth contains 5.4 mM KCl, 5.6 mM Na2HPO4, 0.5 mM MgSO4, and 1.0 mM sodium citrate. In addition, 0.4 mg of ZnCl2, 2.0 mg of FeCl3·6H2O, 0.1 mg of CuSO4·5H2O, 0.1 mg of MnSO4·H2O, 0.1 mg of Na2B4O7·10H2O, 700 mg of amino acid mixtures without tryptophan (Clontech), and 20 mg of L-tryptophan were added per liter of medium. A vitamin mixture (100X, Sigma) and glucose at final concentration of 2% were also added. We made 1 µL peptide solutions (ranging from 3200 µg/mL to 100 µg/mL in serial dilution) and mixed with 99 µL inoculum (5 × 10^5 CFU/mL) in a polypropylene 96-well plate. We measured the turbidity at OD 600 nm by ELISA plate reader (Thermo Max, Molecular Devices, Sunnyvale, CA, USA). The absorbance of culture medium and inoculum suspension without peptides were used as the negative and positive control, respectively. The MIC value is the lowest concentration of peptide at which there is no obvious growth (equal or more than 90%). […] All peptides were tested in triplicate.

Assay [3] concerns LPS (interaction between LPS and factor C). The experiment in a line: Limulus amebocyte lysate (LAL) assay, LPS binding and neutralization. The class given is biochemical, Limulus Polyphemus. Conditions: peptide 64 μg/mL; CSE 5 EU; absorbance 405 nm, 37 °C; triplicate. As for the experimental part:
The ability of binding and neutralizing LPS in vitro was measured by the LAL assay which is well-known as the most sensitive and specific method.
The abilities of designed peptides to bind and neutralize LPS were assessed using Limulus amebocyte lysate (LAL) assay (Cape Cod Inc., East Falmouth, MA, USA). LAL is an extract of amebocytes from the Atlantic horseshoe crab Limulus Polyphemus. LAL reacts with lipopolysaccharide (LPS) from bacteria. Different concentrations (5, 4, 2, 1, 0.5 EU) of control standard LPS (CSE) were mixed with LAL reagent water at the same volume of 25 μL to make a standard curve. The samples of 25 μL of different peptide concentrations (128, 64, 32, 16, 8 μg/mL) were mixed with 25 μL CSE (5 EU) in a 96-well plate. A portion of 50 μL of pyrochrome reagent was added to the wells immediately. The absorbance at 405 nm was measured by microplate reader at 37 °C every minute until 25 min.

The subject of assay [4] is Gram-positive and Gram-negative bacteria. It counts as cell-based.
Description: as §1, §2

Read-outs that look alike come from different tables or passages of the source.

With WRWWRR [WR6], the Antimicrobial activities result in assay [1] is given as “moderate antimicrobial activities”.
As for “Ac-KRIVQRIKDFLR-NH2 [KR12, reference compound]”, in assay [2], the “Effectiveness against Acinetobacter sp. compared with the other three bacteria strains” value is recorded as “more effective”. Further, in assay [3], the “LPS neutralization, inhibition in LAL assay” value is recorded as “less than 25%”. In addition, the Antimicrobial activities result in assay [1] is given as “possess antimicrobial activities”.
Regarding “Ac-KRIVQRIKDFLRAGPRRLVRI-NH2 [KR12AGPVR6]”, the MIC in assay [4] (8 h) is given as 4~32 μg/mL.
Ac-RRWWRW-NH2 [RW6]: the MIC in assay [4] (8 h) is 8~32 μg/mL; in assay [4] (MH broth, inoculum 5 × 10^5 CFU/mL, OD 600 nm, triplicate), “lost its antibacterial activity”. The “MIC (antibacterial activity)” value in assay [4] (LYM broth with >100 mM NaCl added, triplicate) is listed as “lost its antibacterial activity”. The “LPS neutralization, inhibition in LAL assay” value in assay [3] is listed as “less than 25%”.
AKRHHGYKRKFH-NH2 [Peptide P-113]: the “Efficacy in high salt conditions” value in assay [1] (high salt conditions) is “greatly reduced”.
Regarding “Ac-KRIVQRIKDFLRAGPRRWWRW-NH2 [KR12AGPWR6]”, the MIC in assay [4] (8 h) is 2~4 μg/mL.
